In patent US12377119B2, “Natural killer cells” (IMPERIAL COLLEGE INNOVATIONS LIMITED, priority 2018, dated 2025):
Entries after “also recorded” stand apart in the source; their conditions may differ.

How the values were obtained:
REV-ERBα = target: T1, REV-ERBα (Homo sapiens, UniProt P20393); assay: Dual-luciferase Bmal-luc reporter assay in HEK293T cells transfected with REV-ERBα; assay type: cell-based; settings: 10 μM
T1 construct: expressed in transfected cells; host or cells: HEK293T
T1 sequence (P20393 1-614): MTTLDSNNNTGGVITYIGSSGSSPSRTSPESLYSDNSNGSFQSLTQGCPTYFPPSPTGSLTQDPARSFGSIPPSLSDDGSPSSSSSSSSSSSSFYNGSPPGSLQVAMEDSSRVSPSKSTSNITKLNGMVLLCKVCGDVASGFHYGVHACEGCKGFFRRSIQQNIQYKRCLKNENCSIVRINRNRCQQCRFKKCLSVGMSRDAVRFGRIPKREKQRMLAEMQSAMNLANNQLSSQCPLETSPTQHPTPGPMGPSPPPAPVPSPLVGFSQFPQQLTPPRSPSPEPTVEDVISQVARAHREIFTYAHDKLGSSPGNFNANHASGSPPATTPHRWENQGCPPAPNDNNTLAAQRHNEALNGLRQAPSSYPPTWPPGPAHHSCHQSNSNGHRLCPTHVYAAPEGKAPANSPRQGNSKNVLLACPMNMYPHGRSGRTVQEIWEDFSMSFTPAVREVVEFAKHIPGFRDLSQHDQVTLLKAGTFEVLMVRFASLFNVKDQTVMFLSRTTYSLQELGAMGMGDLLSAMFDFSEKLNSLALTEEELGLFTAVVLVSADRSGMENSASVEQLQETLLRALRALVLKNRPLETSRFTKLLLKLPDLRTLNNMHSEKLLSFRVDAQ
Experimental: (§1) HEK293T cells were defrosted and maintained in DMEM supplemented with 10% FCS and 1% P/S at 37° C. and 5% CO2. Cells were plated in a 24-well plate (7·10^4 cells/well in 0.5 mL of DMEM+10% FCS). 24 h after seeding, cells were transfected with 100 ng of Bmal-luc, 10 ng of pRL-CMV Renilla as an internal control and 10 ng of REV-ERBα or the empty vector pcDNA3 as a control. All conditions were equalled to a total of 400 ng of DNA by using BSM. In order to prepare transfection samples, calculated amounts of DNA needed for each condition were prepared in Opti-MEM and Fugene was added in a 5:2 Fugene:DNA ratio. Mixtures were vortexed to assure homogeneity and left to incubate for 15 min at rt. Afterwards, each DNA mix was transferred into the 24-well plate containing the pre-seeded cells, with each condition repeated by triplicate. 5 h after transfection, cells were treated with compounds 2-12, AG1-AG5 or DMSO as vehicle. Solution of the compounds in DMEM were prepared at a double concentration than the final desired one, and 0.5 mL of these solutions were added to each well. 24 h after transfection, cells were lysed and luciferase activity was measured using Dual-Luciferase Reporter Assay System E2920 (Promega). To perform the experiment, cells were lysed by adding 50 μL of passive lysis buffer (PLB) (1:5 dilution) to each well and gently stirring for 30 min. Each cell lysate was transferred to a 96-well plate. 50 μL of Dual-Glo reagent were dispensed into each well, tapped gently to mix and incubated for 10 min. Luminescence of firefly luciferase was measured using a Tecan VICTOR Light Luminescent counter equipment. Then, 50 μL of Stop&Glo reagent were dispensed to quench firefly activity and activate Renilla luciferase, incubated for 10 min and measured. Firefly activity was normalized to Renilla luciferase activity. Results were analysed using Welch's corrected parametric t-test.
(§2) The method of Example 2 was repeated using Compounds 70 to 72 (generated as described in Example 1). Compounds 4, 7 and 11 (tested in Example 2) were used as a positive control for REV-ERB inhibitory activity, agonist compound AG2 (also tested in Example 2) and DMSO were also tested as comparators.
The method of Example 2 was repeated using Compounds 64 to 66, 69 and 70 to 73 (generated as described in Example 1). Once again, Compounds 4, 7 and 11 (tested in Example 2) were used as a positive control for REV-ERB inhibitory activity, agonist compound AG2 (also tested in Example 2) and DMSO were also tested as comparators.
as §2, with “16” for “70”, “19, 27, 28 and 44” for “72”, “1). Once again,” for “1).”

NK cells = NK cells development assay (Lin− bone marrow cells co-cultured with OP9 stromal cells, flow cytometry); assay type: cell-based, mouse
Experimental: Mice. All mice used in this study were wild type on a C57BL/6 background, between six and twelve weeks old. All animal husbandry and experimental procedures were performed according to UK Home Office regulations and institute guidelines.
OP9 cell line and cell culture. OP9 is a stromal cell line from mouse bone marrow known to support lymphocyte differentiation of hematopoietic progenitors when co-culturing with them. OP9-GFP cells were cultured in Iscove's Modified Dulbecco's Medium (IMDM) (Sigma-Aldrich) supplemented with 20% Fetal Bovine Serum (FBS) and 1% Penicillin/[…] (P/S). They were split into 24-well plates with 2500 cells per well two days before transferring Lin− cells onto them. Cells were kept in a 5% CO2 humidified atmosphere at 37 QC. Lineage negative cells isolation from bone marrow. Mouse leg and hip bones were crushed in Phosphate Buffered Saline (PBS) with 2% FBS to release bone marrow cells. Cell suspension was filtered through a […] strainer, topped up to 40 mL with PBS+2% FBS and centrifuged at 500×g for 4 minutes. Cells were resuspended in 2 mL PBS+2% FBS and stained with phycoerythrin (PE)-conjugated cocktail (20 μL anti-B220 (RA3/6B2), 20 μL anti-CD2 (RM2-5), 20 μL anti-Ter119 (TER119), 20 μL anti-NK1.1 (PK136), 5 μL anti-CD11b (M1/70) and 5 μL Gr1 (RB6-8C5) antibodies (all from eBioscience) for 5 minutes at 4° C. Then, cells were washed, centrifuged and incubated with anti-PE Microbeads (Miltenyi) for 15 minutes at 4° C. Next, cells were washed with PBS and passed through LD column (Miltenyi), enabling the negative selection of unstained Lin− cells that flowed through the column. 50 μL of cells were taken to check the purity after depletion using flow cytometry. In vitro NK cell development from lineage negative cells. Lin− cells were plated in 24-well plates with 5×10^5 cells in 1 mL of Dulbecco's Modified Eagle Medium (DMEM) (Sigma-Aldrich) supplemented with 10% embryonic stem cell-qualified FBS (ES-FBS), 1% P/S, 50 μM β-Mercaptoethanol (β-ME), 10 ng/ml Flt3-ligand (Flt3L) (R&D Systems), 10 ng/mL IL-7 (R&D Systems) and 100 ng/mL stem cell factor (SCF) (R&D Systems) per well and cultured for 2 days. Cells were transferred for co-culture with OP9-GFP stromal cells in 24-well plates with 3×10^4 cells in 1 mL of Alpha MEM (Sigma-Aldrich) supplemented with 20% ES-FBS, 1% P/S, 50 μM β-ME and 10 ng/mL IL-15 (R&D Systems) per well and cultured for […]. Compounds were added on day 2, at the same time as cells were transferred together with OP9. Supernatant was removed on day 5, and new media was added with compound. Cells were kept in a 5% CO2 humidified atmosphere at 37° C.
Flow cytometry. After being cultured for 7 days, cells were harvested, filtered through 40 μm strainers to remove OP9 cells and washed with PBS. After centrifuging at 500×g for 5 minutes at 4° C., they were stained with appropriate fluorochrome conjugated antibodies with 1:300 dilution in 100 μL of fluorescent activated cell sorting (FACS) buffer (PBS with 1% BSA) for 15 minutes at 4° C. in the dark. Antibodies include CD3(e450), NK1.1(APC), NKp46(Percp e710) and PI, all of which are anti-mouse and from eBioscience. Cells were then washed in 1 ml FACS buffer, centrifuged and resuspended in 300 μL FACS buffer. Compensation was set up using Anti-Mouse Ig, k and Anti-Rat/Hamster Ig, k Compensation Particles Set (BDTM Combead). Flow cytometry analysis was carried out using BD LSRFortessa™ cell analyser (Becton Dickinson Bioscience) and data analysis was performed using FlowJo.
The method of Example 7 was repeated using 5 μM of Compounds 7 and 11, and 5 and 10 μM of Compound 72.

REV-ERBβ = target: T2, REV-ERBβ (Homo sapiens, UniProt Q14995); assay: Dual-luciferase Bmal-luc reporter assay in HEK293T cells transfected with REV-ERBβ; assay type: cell-based; settings: 10 μM
T2 construct: expressed in transfected cells; host or cells: HEK293T
T2 sequence (Q14995 1-579): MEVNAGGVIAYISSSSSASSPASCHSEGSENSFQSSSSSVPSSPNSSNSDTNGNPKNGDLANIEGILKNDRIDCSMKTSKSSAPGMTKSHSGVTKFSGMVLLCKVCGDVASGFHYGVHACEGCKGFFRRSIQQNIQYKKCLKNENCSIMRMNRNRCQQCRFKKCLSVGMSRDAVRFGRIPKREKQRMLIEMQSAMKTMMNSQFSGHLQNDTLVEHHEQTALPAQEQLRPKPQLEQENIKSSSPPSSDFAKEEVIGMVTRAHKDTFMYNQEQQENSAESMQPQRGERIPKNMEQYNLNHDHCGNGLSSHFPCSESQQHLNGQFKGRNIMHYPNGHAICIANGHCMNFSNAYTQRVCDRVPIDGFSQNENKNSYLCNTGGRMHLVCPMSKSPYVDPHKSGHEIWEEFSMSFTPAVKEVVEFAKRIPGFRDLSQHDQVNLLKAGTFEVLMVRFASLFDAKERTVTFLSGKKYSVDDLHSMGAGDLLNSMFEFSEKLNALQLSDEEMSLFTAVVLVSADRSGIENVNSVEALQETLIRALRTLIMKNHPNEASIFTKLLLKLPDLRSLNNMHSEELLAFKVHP
Experimental: as §1
The method of Example 2 was repeated but with 10 ng of REV-ERBβ used in place of REV-ERBa. Compounds 4, 66, 69 and 73 were tested (generated as described in Example 1). Agonist compound AG2 and DMSO were also tested as comparators.
The method of Example 5 was repeated using Compounds 18 and 19 (generated as described in Example 1). Agonist compound AG5 and DMSO were also tested as comparators.

[1] = FIG. 3, three independent experiments in triplicate, comparison with SR8278
[2] = FIG. 4, two independent experiments in triplicate, comparison with SR8278
[3] = FIG. 7, three independent experiments in triplicate
[4] = 5 μM, FIG. 10, compared with SR8278
[5] = 10 μM, FIG. 9, compared with SR8278
[6] = FIG. 10 legend, concentration not stated there (5 μM for 7 and 11, 5 and 10 μM for 72), compared with SR8278 and AG2
[7] = FIG. 8, two independent experiments in triplicate

SMILES | Effect on REV-ERBα activity (Bmal-luc luciferase expression) (REV-ERBα; [1]) | Effect on REV-ERBα activity (Bmal-luc luciferase expression) (REV-ERBα; [2]) | Effect on REV-ERBα activity (Bmal-luc luciferase expression) (REV-ERBα; [3]) | Total number of NK cells (NK cells; [4]) | Total number of NK cells (NK cells; [5]) | Total number of NK cells (NK cells; [6]) | Effect on REV-ERBβ activity (Bmal-luc luciferase expression) (REV-ERBβ; [7]) | Total number of NK cells (NK cells; 10 μM, FIG. 10, compared with SR8278) | Effect on REV-ERBβ activity (Bmal-luc luciferase expression) (REV-ERBβ; FIG. 6, three independent experiments in triplicate)
CCOC(=O)C1Cc2ccccc2CN1C(=O)c1ocnc1C (racemic) [Compound 11, Ethyl 2-(4-methyloxazole-5-carbonyl)-1,2,3,4-tetrahydrolsoquinoline-3-carboxylate] | significant increase in luciferase expression compared with SR8278; also recorded: significant antagonistic activity | significant antagonistic activity | significant antagonistic activity | significant increase in the total number of NK cells compared with SR8278 | increase in the total number of NK cells compared with SR8278 | significant increase in NK cell number | – | – | –
CCOC(=O)C1Cc2ccccc2CN1C(=O)c1ccn(C)n1 (racemic) [Compound 19] | – | – | – | – | – | – | antagonistic activity | – | –
CCOC(=O)C1Cc2ccccc2CN1C(=O)c1ccnn1C (racemic) [Compound 18] | – | – | – | – | – | – | antagonistic activity | – | –
CCOC(=O)C1Cc2ccccc2CN1C(=O)c1ccco1 (racemic) [Compound 7, Ethyl 2-(furan-2-carbonyl)-1,2,3,4-tetrahydrolsoquinoline-3-carboxylate] | significant increase in luciferase expression compared with SR8278; also recorded: significant antagonistic activity | significant antagonistic activity | significant antagonistic activity | significant increase in the total number of NK cells compared with SR8278 | significant increase in NK cell number | significant increase in NK cell number | – | – | –
CCOC(=O)CN(Cc1ccccc1)C(=O)c1ccco1 (racemic) [Compound 72] | – | inhibitory effect on REV-ERB greater than that obtained using SR8278; also recorded: significant antagonistic activity | – | significant increase in the total number of NK cells compared with SR8278 | – | significant increase in NK cell number | – | significant increase in the total number of NK cells compared with SR8278 | –
CCOC(=O)C1Cc2ccccc2CN1C(=O)OCC (racemic) [Compound 4, Diethyl 3,4-dihydroisoquinoline-2,3(1H)-dicarboxylate] | significant increase in luciferase expression compared with SR8278; also recorded: significant antagonistic activity | significant antagonistic activity | significant antagonistic activity | – | – | – | – | – | significant antagonistic activity
